Reference: ChEMBL document CHEMBL4507259 (2021)

What was measured:
[1] = target: Serine/threonine-protein kinase SIK1 (Homo sapiens) (UniProt P57059); conditions: Compound concentration 1000.0 nM
[2] = target: Serine/threonine-protein kinase WNK3 (Homo sapiens) (UniProt Q9BYP7); conditions: Compound concentration 1000.0 nM
[3] = target: Serine/threonine-protein kinase BRSK2 (Homo sapiens) (UniProt Q8IWQ3); conditions: Compound concentration 1000.0 nM
[4] = target: Serine/threonine-protein kinase 24 (Homo sapiens) (UniProt Q9Y6E0); conditions: Compound concentration 1000.0 nM
[5] = target: Cyclin-dependent kinase 3 (Homo sapiens) (UniProt Q00526); conditions: Compound concentration 1000.0 nM
Cyclin-dependent kinase 3 (Homo sapiens), sequence (Q00526 whole entry, looked up): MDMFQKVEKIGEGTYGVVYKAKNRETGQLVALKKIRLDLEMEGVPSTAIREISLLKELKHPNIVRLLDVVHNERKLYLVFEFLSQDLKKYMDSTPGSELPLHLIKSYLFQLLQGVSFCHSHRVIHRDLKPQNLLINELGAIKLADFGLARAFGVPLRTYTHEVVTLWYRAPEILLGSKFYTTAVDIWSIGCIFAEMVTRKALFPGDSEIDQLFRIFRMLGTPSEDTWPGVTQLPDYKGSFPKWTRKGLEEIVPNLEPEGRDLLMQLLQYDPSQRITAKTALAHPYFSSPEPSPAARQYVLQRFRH

[6] = target: Serine/threonine-protein kinase PLK4 (Homo sapiens) (UniProt O00444); conditions: Compound concentration 1000.0 nM
[7] = target: Cyclin-dependent kinase 11A (Homo sapiens) (UniProt Q9UQ88); conditions: Compound concentration 1000.0 nM
Cyclin-dependent kinase 11A (Homo sapiens), sequence (Q9UQ88 whole entry): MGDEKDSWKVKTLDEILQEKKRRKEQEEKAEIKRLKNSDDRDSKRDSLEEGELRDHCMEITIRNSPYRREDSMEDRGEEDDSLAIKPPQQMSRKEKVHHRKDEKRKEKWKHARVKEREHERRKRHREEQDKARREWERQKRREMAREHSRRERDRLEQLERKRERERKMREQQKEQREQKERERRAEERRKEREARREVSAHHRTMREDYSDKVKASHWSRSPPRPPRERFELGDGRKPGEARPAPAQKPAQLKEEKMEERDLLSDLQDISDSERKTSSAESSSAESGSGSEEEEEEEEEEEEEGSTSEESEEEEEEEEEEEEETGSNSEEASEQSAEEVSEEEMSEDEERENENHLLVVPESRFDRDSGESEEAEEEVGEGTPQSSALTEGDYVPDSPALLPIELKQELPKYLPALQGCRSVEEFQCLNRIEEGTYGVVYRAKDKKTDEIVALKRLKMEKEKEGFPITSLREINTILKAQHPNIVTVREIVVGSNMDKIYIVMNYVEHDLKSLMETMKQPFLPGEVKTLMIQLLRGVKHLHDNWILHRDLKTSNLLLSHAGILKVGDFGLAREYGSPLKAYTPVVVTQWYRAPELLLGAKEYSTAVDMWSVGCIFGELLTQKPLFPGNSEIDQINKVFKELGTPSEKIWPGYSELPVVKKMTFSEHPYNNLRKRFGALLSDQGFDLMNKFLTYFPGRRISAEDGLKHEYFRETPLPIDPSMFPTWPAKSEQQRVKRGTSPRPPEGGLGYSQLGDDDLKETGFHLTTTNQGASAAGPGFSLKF

[8] = target: Serine/threonine-protein kinase pim-2 (Homo sapiens) (UniProt Q9P1W9); conditions: Compound concentration 1000.0 nM
[9] = target: Activin receptor type-1-like (Homo sapiens) (UniProt P37023); conditions: Compound concentration 1000.0 nM
Activin receptor type-1-like (Homo sapiens), sequence (P37023 whole entry): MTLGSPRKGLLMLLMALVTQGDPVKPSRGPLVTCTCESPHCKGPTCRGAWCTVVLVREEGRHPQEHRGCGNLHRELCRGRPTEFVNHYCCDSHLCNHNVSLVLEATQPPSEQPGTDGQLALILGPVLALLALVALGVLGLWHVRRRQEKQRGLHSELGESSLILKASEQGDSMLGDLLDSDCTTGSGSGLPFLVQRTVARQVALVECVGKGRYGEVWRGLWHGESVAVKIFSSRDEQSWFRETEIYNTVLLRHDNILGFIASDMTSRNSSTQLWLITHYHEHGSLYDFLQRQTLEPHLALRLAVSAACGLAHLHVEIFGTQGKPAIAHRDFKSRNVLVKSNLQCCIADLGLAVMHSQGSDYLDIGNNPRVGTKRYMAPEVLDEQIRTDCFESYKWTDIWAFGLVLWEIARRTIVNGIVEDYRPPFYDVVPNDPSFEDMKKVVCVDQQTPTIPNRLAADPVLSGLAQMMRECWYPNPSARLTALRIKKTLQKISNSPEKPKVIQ

[10] = target: Serine/threonine-protein kinase Nek10 (Homo sapiens) (UniProt Q6ZWH5); conditions: Compound concentration 1000.0 nM
[11] = test system: Hepatocyte growth factor receptor (Homo sapiens), P08581 [Y1235D]; conditions: Compound concentration 1000.0 nM
[12] = target: Phosphatidylinositol 4,5-bisphosphate 3-kinase catalytic subunit beta isoform (Homo sapiens) (UniProt P42338); conditions: Compound concentration 1000.0 nM
[13] = target: T1, Muscarinic acetylcholine receptor M1 (Homo sapiens) (UniProt P11229); experiment: M1 (h) CEREP ligand profiling; conditions: filed as antagonist, Compound concentration 10.0 uM
T1 sequence (whole entry): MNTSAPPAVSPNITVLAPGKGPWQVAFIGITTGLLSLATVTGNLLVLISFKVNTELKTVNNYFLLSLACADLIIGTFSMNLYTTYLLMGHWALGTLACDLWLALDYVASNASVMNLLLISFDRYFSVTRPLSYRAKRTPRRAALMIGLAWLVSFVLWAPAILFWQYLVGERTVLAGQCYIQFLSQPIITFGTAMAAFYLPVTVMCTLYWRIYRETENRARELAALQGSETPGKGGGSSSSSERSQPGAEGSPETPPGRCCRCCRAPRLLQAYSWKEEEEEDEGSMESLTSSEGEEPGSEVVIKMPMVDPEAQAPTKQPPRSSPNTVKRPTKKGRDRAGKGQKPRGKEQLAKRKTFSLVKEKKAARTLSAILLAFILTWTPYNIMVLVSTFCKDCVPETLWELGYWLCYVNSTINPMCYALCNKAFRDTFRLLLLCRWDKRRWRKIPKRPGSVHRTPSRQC

[14] = target: Ephrin type-B receptor 2 (Homo sapiens) (UniProt P29323); conditions: Compound concentration 1000.0 nM
[15] = target: Calcium/calmodulin-dependent protein kinase type 1 (Homo sapiens) (UniProt Q14012); conditions: Compound concentration 1000.0 nM
Calcium/calmodulin-dependent protein kinase type 1 (Homo sapiens), sequence (Q14012 whole entry, looked up): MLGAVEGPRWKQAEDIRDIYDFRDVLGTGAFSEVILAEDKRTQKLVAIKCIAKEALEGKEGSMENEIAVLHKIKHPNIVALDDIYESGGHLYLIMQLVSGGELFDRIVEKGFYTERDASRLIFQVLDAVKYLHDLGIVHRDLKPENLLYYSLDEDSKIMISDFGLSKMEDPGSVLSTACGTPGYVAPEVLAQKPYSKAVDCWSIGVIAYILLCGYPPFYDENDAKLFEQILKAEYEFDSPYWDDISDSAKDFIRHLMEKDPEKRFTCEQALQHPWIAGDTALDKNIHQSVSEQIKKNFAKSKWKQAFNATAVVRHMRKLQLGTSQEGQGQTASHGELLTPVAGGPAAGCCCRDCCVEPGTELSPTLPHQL

[16] = target: Mitogen-activated protein kinase 10 (Homo sapiens) (UniProt P53779); conditions: Compound concentration 1000.0 nM
[17] = target: Mitogen-activated protein kinase 6 (Homo sapiens) (UniProt Q16659); conditions: Compound concentration 1000.0 nM
[18] = target: Serine/threonine-protein kinase PAK 6 (Homo sapiens) (UniProt Q9NQU5); conditions: Compound concentration 1000.0 nM
[19] = target: 5-hydroxytryptamine receptor 2A (Homo sapiens) (UniProt P28223); conditions: Compound concentration 10.0 uM
[20] = target: Acetylcholinesterase (Homo sapiens) (UniProt P22303); experiment: acetylcholinesterase (h) CEREP ligand profiling; conditions: Compound concentration 10.0 uM
[21] = target: T2, 5-hydroxytryptamine receptor 1A (Homo sapiens) (UniProt P08908); conditions: Compound concentration 10.0 uM
T2 sequence (whole entry): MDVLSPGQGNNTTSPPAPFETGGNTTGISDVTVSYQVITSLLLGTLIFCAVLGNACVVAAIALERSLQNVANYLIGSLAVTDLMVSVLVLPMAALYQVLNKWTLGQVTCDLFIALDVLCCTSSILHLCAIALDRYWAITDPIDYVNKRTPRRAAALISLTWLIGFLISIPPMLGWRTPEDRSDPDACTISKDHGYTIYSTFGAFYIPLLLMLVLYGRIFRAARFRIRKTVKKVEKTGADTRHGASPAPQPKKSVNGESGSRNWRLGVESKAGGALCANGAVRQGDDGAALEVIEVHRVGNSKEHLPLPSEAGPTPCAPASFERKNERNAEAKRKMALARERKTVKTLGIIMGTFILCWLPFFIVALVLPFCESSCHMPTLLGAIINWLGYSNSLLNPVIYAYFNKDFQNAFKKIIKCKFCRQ

[22] = target: Protein kinase C epsilon type (Homo sapiens) (UniProt Q02156); conditions: Compound concentration 1000.0 nM
[23] = target: Dual specificity protein kinase CLK2 (Homo sapiens) (UniProt P49760); conditions: Compound concentration 1000.0 nM
Dual specificity protein kinase CLK2 (Homo sapiens), sequence (P49760 whole entry, looked up): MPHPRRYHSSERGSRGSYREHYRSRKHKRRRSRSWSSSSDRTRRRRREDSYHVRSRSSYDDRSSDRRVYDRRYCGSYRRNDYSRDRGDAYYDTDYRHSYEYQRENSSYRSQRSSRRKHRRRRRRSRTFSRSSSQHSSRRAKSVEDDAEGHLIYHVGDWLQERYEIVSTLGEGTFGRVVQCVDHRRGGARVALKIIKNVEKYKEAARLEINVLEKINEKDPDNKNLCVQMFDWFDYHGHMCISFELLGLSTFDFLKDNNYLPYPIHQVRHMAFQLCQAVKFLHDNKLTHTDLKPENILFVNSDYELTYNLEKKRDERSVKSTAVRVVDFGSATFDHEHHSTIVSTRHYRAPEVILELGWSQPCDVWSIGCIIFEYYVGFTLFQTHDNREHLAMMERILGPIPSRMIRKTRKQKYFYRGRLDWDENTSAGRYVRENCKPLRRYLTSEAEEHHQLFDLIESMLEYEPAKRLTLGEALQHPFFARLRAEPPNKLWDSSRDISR

[24] = target: Endothelin-1 receptor (Homo sapiens) (UniProt P25101); experiment: ETA (h) CEREP ligand profiling; conditions: filed as agonist, Compound concentration 10.0 uM
Endothelin-1 receptor (Homo sapiens), sequence (P25101 whole entry): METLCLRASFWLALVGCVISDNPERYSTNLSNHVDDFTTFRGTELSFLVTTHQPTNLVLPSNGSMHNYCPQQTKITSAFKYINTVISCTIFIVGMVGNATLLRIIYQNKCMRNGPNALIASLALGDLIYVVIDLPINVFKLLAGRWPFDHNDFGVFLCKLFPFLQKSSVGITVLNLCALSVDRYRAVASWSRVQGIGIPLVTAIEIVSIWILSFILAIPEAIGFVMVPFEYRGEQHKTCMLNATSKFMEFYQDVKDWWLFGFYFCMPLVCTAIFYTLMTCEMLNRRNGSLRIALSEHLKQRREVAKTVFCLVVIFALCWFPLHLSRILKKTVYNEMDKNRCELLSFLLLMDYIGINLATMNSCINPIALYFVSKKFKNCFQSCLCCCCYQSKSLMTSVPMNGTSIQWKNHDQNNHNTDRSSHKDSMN

[25] = target: Mitogen-activated protein kinase kinase kinase 4 (Homo sapiens) (UniProt Q9Y6R4); conditions: Compound concentration 1000.0 nM
[26] = target: Tyrosine-protein kinase Blk (Homo sapiens) (UniProt P51451); conditions: Compound concentration 1000.0 nM
Tyrosine-protein kinase Blk (Homo sapiens), sequence (P51451 2-505 limits assumed): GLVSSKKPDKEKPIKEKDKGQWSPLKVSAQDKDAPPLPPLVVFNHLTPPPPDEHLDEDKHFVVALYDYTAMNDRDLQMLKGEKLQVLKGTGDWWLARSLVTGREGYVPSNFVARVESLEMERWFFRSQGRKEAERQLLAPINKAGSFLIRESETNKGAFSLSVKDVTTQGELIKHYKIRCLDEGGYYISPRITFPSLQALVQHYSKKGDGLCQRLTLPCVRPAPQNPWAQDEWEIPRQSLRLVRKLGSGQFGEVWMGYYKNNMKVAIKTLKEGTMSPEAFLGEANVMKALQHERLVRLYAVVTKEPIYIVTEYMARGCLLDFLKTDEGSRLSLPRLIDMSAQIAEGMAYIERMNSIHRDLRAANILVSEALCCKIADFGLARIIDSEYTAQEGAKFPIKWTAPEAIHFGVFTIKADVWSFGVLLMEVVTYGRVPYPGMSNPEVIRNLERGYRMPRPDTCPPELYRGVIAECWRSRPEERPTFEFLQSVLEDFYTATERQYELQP

[27] = target: Cyclin-dependent kinase-like 5 (Homo sapiens) (UniProt O76039); conditions: Compound concentration 1000.0 nM
[28] = target: Serine/threonine-protein kinase PLK2 (Homo sapiens) (UniProt Q9NYY3); conditions: Compound concentration 1000.0 nM
[29] = test system: Epidermal growth factor receptor (Homo sapiens), P00533 [UNDEFINED MUTATION]; conditions: Compound concentration 1000.0 nM
Epidermal growth factor receptor (Homo sapiens), P00533 [UNDEFINED MUTATION], sequence (P00533 whole entry, looked up, change not shown): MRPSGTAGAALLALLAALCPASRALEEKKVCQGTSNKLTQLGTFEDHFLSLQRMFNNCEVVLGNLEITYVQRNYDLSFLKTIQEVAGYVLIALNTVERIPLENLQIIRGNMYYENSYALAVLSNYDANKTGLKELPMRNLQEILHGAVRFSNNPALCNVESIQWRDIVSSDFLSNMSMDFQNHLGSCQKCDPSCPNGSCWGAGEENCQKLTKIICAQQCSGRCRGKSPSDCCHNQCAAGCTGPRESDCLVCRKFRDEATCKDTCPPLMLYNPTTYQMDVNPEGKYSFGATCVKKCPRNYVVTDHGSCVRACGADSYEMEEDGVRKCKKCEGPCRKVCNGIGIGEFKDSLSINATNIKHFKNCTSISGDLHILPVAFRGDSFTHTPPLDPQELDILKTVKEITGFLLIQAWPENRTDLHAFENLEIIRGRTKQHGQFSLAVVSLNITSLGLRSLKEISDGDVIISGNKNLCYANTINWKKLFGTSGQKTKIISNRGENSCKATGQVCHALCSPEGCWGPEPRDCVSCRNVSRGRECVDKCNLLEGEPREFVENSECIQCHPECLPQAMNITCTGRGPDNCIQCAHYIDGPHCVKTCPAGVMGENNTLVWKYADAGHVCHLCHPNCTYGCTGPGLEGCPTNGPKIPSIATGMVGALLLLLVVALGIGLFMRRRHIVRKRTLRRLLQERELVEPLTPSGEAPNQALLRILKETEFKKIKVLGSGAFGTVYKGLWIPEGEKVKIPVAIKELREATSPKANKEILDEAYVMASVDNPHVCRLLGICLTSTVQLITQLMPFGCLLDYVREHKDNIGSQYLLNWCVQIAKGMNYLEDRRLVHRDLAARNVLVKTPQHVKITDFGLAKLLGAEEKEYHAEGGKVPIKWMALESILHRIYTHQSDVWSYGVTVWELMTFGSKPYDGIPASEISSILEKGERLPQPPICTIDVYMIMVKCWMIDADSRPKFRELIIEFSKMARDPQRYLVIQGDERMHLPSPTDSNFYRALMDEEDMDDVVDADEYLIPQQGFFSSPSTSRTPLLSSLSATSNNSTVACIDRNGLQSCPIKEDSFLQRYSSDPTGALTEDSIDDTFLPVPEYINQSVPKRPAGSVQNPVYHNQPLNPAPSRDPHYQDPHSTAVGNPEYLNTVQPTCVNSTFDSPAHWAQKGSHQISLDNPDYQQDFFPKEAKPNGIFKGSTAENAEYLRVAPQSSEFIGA

[30] = target: Testis-specific serine/threonine-protein kinase 1 (Homo sapiens) (UniProt Q9BXA7); conditions: Compound concentration 1000.0 nM
[31] = target: Casein kinase I isoform delta (Homo sapiens) (UniProt P48730); conditions: Compound concentration 1000.0 nM
Casein kinase I isoform delta (Homo sapiens), sequence (P48730 whole entry, looked up, canonical isoform): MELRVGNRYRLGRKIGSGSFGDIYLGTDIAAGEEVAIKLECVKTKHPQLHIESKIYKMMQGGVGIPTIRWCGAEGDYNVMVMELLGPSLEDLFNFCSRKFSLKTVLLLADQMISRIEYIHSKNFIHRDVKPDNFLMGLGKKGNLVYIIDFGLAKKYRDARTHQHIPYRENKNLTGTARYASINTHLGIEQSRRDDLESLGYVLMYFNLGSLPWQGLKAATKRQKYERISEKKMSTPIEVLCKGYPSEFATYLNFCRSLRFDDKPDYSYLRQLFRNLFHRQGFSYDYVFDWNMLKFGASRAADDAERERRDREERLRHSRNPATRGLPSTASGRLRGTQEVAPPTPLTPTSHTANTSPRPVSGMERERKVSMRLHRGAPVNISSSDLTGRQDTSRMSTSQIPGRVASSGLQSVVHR

[32] = test system: Hepatocyte growth factor receptor (Homo sapiens), P08581 [M1250T]; conditions: Compound concentration 1000.0 nM
[33] = target: Prostaglandin E2 receptor EP2 subtype (Homo sapiens) (UniProt P43116); experiment: EP2 (h) CEREP ligand profiling; conditions: filed as agonist, Compound concentration 10.0 uM

Work on CNC(=O)Nc1ccc2c(c1)CC[C@@]21OC(=O)N(CC(=O)N(Cc2ccc(F)cc2)[C@@H](C)C(F)(F)F)C1=O [A-485] yielded a residual activity [1] of 98%, a residual activity [2] of 83% and a residual activity [3] of 70%. The residual activity [4] was 90%, the residual activity [5] was 100% and the residual activity [6] was 100%. The residual activity [7] was 83%, the residual activity [8] was 98% and the residual activity [9] was 72%. The residual activity [10] was 81%, the residual activity [11] was 81% and the residual activity [12] was 94%. The inhibition [13] was -2%, the residual activity [14] was 72% and the residual activity [15] was 95%. For the same compound, the residual activity [16] was 73%, the residual activity [17] was 100% and the residual activity [18] was 91%. It also gave an inhibition [19] of 34.6%, an inhibition [20] of -1% and an inhibition [21] of 6.87%. The residual activity [22] was 22%, the residual activity [23] was 97% and the inhibition [24] was 3%. It also gave a residual activity [25] of 89%, a residual activity [26] of 100% and a residual activity [27] of 69%. For the same compound, the residual activity [28] was 91%, the residual activity [29] was 95% and the residual activity [30] was 84%. The residual activity [31] was 99%, the residual activity [32] was 75% and the inhibition [33] was 27%.
CNC(=O)Nc1ccc2c(c1)[C@@]1(CC2)OC(=O)N(CC(=O)N(Cc2ccc(F)cc2)[C@@H](C)C(F)(F)F)C1=O [A-486] was tested, and the residual activity [1] was 90%, the residual activity [2] was 63% and the residual activity [3] was 90%. The residual activity [4] was 100%, the residual activity [5] was 100% and the residual activity [6] was 100%. It also gave a residual activity [7] of 94%, a residual activity [8] of 89% and a residual activity [9] of 78%. For the same compound, the residual activity [10] was 91%, the residual activity [11] was 93% and the residual activity [12] was 97%. It also gave an inhibition [13] of -8%, a residual activity [14] of 87% and a residual activity [15] of 100%. For the same compound, the residual activity [16] was 67%, the residual activity [17] was 97% and the residual activity [18] was 100%. The inhibition [19] was 26.6%, the inhibition [20] was 8% and the inhibition [21] was 4.17%. The residual activity [22] was 99%, the residual activity [23] was 100% and the inhibition [24] was -1%. The residual activity [25] was 87%, the residual activity [26] was 100% and the residual activity [27] was 82%. The residual activity [28] was 92%, the residual activity [29] was 96% and the residual activity [30] was 100%. The residual activity [31] was 100%, the residual activity [32] was 100% and the inhibition [33] was 10%.
